Changes are numbered by the printed parent chain.
What was measured:
α-Gal A mutant form A29D = assay: α-Gal A activity in lysates of transfected HEK-293 cells ± migalastat (HEK assay); format: cell-based, human
Source text: (§1) Such mutations or variants are also referred to herein as “HEK assay amenable” mutations or variants.
(§2) The α-Gal A activity is expressed as the nmoles of free 4-MU released per milligram of protein per hour (nmol/mg/hr).

[1] = tested on: novel α-Gal A mutations A29D, R38S, N53Y, Y88C, V124G, I133F, A143V, Y152N, F159C, A160D, D165N, F169I, L180V, D182G, R196T, W209R, A257T, P259S, G271A, S276T …; assay: HEK assay, amenability of the novel mutations taken together; format: cell-based, human; settings: all 31 novel mutations; criteria: relative increase ≥1.20-fold and absolute increase ≥3.0% wild-type at 10 μM migalastat
Source text: as §1, §2

[2] = target: T1, α-Gal A mutant form F159C (Homo sapiens, UniProt P06280, F159C); assay: α-Gal A activity in lysates of transfected HEK-293 cells ± migalastat (HEK assay); format: cell-based
T1 construct: expressed in transfected cells; host or cells: HEK-293
T1 sequence (P06280 32-429 F159C): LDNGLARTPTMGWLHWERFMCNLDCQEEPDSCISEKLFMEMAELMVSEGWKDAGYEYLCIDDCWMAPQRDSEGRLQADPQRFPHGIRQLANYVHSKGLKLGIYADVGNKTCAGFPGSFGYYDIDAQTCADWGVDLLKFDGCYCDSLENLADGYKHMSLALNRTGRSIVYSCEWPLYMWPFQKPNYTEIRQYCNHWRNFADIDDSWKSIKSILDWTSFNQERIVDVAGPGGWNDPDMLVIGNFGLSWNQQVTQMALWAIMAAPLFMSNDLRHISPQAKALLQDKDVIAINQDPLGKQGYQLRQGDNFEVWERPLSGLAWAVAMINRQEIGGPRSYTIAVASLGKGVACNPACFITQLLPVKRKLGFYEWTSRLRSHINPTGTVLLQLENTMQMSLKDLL
Source text: as §1, §2

[3] = target: T2, α-Gal A mutant form Y152N (Homo sapiens, UniProt P06280, Y152N); assay: as above; format: cell-based
T2 construct: expressed in transfected cells; host or cells: HEK-293
T2 sequence (P06280 32-429 Y152N): T1 sequence (P06280 32-429 F159C) with Y121N, C128F
Source text: as §1, §2

[4] = target: T3, α-Gal A mutant form A160D (Homo sapiens, UniProt P06280, A160D); assay: as above; format: cell-based
T3 construct: expressed in transfected cells; host or cells: HEK-293
T3 sequence (P06280 32-429 A160D): T1 sequence (P06280 32-429 F159C) with C128F, A129D
Source text: as §1, §2

[5] = target: T4, α-Gal A mutant form M290V (Homo sapiens, UniProt P06280, M290V); assay: as above; format: cell-based
T4 construct: expressed in transfected cells; host or cells: HEK-293
T4 sequence (P06280 32-429 M290V): T1 sequence (P06280 32-429 F159C) with C128F, M259V
Source text: as §1, §2

[6] = target: T5, α-Gal A mutant form A291S (Homo sapiens, UniProt P06280, A291S); assay: as above; format: cell-based
T5 construct: expressed in transfected cells; host or cells: HEK-293
T5 sequence (P06280 32-429 A291S): T1 sequence (P06280 32-429 F159C) with C128F, A260S
Source text: as §1, §2

[7] = 10 μM migalastat minus baseline
[8] = HEK-293 lysates, 10 μM migalastat 5 days, mean ± SEM

OC[C@H]1NC[C@H](O)[C@@H](O)[C@H]1O [migalastat, (2R,3S,4R,5S)-2-(hydroxymethyl) piperdine-3,4,5-triol]
Absolute increase (% WT) (α-Gal A mutant form A29D; [7]): 5.1 % WT
Relative increase (α-Gal A mutant form A29D; 10 μM migalastat ÷ baseline): 1.35
10 μM migalastat α-Gal A activity (α-Gal A mutant form A29D; [8]): 6877 ± 474 nmol/mg/h
10 μM migalastat α-Gal A activity (% WT) (α-Gal A mutant form A29D; [8]): 20.3 ± 1.1 % WT
in vitro response to incubation with migalastat [1]: met amenability criteria
Absolute increase (% WT) [2, 7]: 15.8 % WT
Relative increase ([2]; 10 μM migalastat ÷ baseline): 2.07
10 μM migalastat α-Gal A activity [2, 8]: 9238 ± 513 nmol/mg/h
10 μM migalastat α-Gal A activity (% WT) [2, 8]: 29.6 ± 2.3 % WT
Absolute increase (% WT) [3, 7]: 25.9 % WT
Relative increase ([3]; 10 μM migalastat ÷ baseline): 1.97
10 μM migalastat α-Gal A activity [3, 8]: 18554 ± 1297 nmol/mg/h
10 μM migalastat α-Gal A activity (% WT) [3, 8]: 51.6 ± 2.2 % WT
Absolute increase (% WT) [4, 7]: 25.9 % WT
Relative increase ([4]; 10 μM migalastat ÷ baseline): 1.83
10 μM migalastat α-Gal A activity [4, 8]: 18238 ± 1048 nmol/mg/h
10 μM migalastat α-Gal A activity (% WT) [4, 8]: 56 ± 4.1 % WT
Absolute increase (% WT) [5, 7]: 61.5 % WT
Relative increase ([5]; 10 μM migalastat ÷ baseline): 1.94
10 μM migalastat α-Gal A activity [5, 8]: 45804 ± 2927 nmol/mg/h
10 μM migalastat α-Gal A activity (% WT) [5, 8]: 128.1 ± 8.2 % WT
Absolute increase (% WT) [6, 7]: 26.8 % WT
Relative increase ([6]; 10 μM migalastat ÷ baseline): 1.55
10 μM migalastat α-Gal A activity [6, 8]: 20029 ± 1654 nmol/mg/h
10 μM migalastat α-Gal A activity (% WT) [6, 8]: 74.5 ± 4^ % WT

From patent US20230136297A1, “Methods Of Treating Fabry Disease In Patients Having A Mutation In The GLA Gene” (Amicus Therapeutics, Inc., priority 2020, published 2023)
